From ChEMBL document CHEMBL3132854, “Synthesis and anticancer activity evaluation of resveratrolchalcone conjugates” (2014)

Key:
Type in all cases: functional
MDA-MB-231 = test: Cytotoxicity against human MDA-MB-231 cells by sulforhodamine B assay
MCF7 = test: Cytotoxicity against human MCF7 cells by sulforhodamine B assay
PC-3 = test: Cytotoxicity against human PC3 cells by sulforhodamine B assay
[1] = Cytotoxicity against human UO31 cells by sulforhodamine B assay
SN12C = test: Cytotoxicity against human SN12C cells by sulforhodamine B assay
CAKI-1 = test: Cytotoxicity against human CAKI-1 cells by sulforhodamine B assay
ACHN = test: Cytotoxicity against human ACHN cells by sulforhodamine B assay
A498 = test: Cytotoxicity against human A498 cells by sulforhodamine B assay
786-0 = test: Cytotoxicity against human 786-0 cells by sulforhodamine B assay
SK-OV-3 = test: Cytotoxicity against human SKOV3 cells by sulforhodamine B assay
OVCAR-8 = test: Cytotoxicity against human OVCAR8 cells by sulforhodamine B assay
[2] = Cytotoxicity against human OVCAR5 cells by sulforhodamine B assay
UACC-62 = test: Cytotoxicity against human UACC62 cells by sulforhodamine B assay
SK-MEL-5 = test: Cytotoxicity against human SK-MEL-5 cells by sulforhodamine B assay
SK-MEL-28 = test: Cytotoxicity against human SK-MEL-28 cells by sulforhodamine B assay
MDA-MB-435 = test: Cytotoxicity against human MDA-MB-435 cells by sulforhodamine B assay
U-251 = test: Cytotoxicity against human U251 cells by sulforhodamine B assay
SNB-75 = test: Cytotoxicity against human SNB75 cells by sulforhodamine B assay
SF-539 = test: Cytotoxicity against human SF539 cells by sulforhodamine B assay
SF-268 = test: Cytotoxicity against human SF268 cells by sulforhodamine B assay
SW-620 = test: Cytotoxicity against human SW620 cells by sulforhodamine B assay
KM12 = test: Cytotoxicity against human KM12 cells by sulforhodamine B assay
HCT-15 = test: Cytotoxicity against human HCT15 cells by sulforhodamine B assay
HT-29 = test: Cytotoxicity against human HT-29 cells by sulforhodamine B assay
HCT-116 = test: Cytotoxicity against human HCT116 cells by sulforhodamine B assay
HCC 2998 = test: Cytotoxicity against human HCC2998 cells by sulforhodamine B assay
COLO 205 = test: Cytotoxicity against human COLO205 cells by sulforhodamine B assay
NCI-H522 = test: Cytotoxicity against human NCI-H522 cells by sulforhodamine B assay
NCI-H460 = test: Cytotoxicity against human NCI-H460 cells by sulforhodamine B assay
NCI-H322M = test: Cytotoxicity against human NCI-H322M cells by sulforhodamine B assay
NCI-H23 = test: Cytotoxicity against human NCI-H23 cells by sulforhodamine B assay
HOP-62 = test: Cytotoxicity against human HOP62 cells by sulforhodamine B assay
SR = test: Cytotoxicity against human SR cells by sulforhodamine B assay
MOLT-4 = test: Cytotoxicity against human MOLT4 cells by sulforhodamine B assay
CCRF-CEM = test: Cytotoxicity against human CCRF-CEM cells by sulforhodamine B assay
HL-60(TB) = test: Cytotoxicity against human HL-60(TB) cells by sulforhodamine B assay
MDA-MB-468 = test: Cytotoxicity against human MDA-MB-468 cells by sulforhodamine B assay
T47D = test: Cytotoxicity against human T47D cells by sulforhodamine B assay
BT-549 = test: Cytotoxicity against human BT549 cells by sulforhodamine B assay
[3] = read-out: LC50 (the source's name)

What does the source list for `COc1ccc(C(=O)/C=C/c2ccc(/C=C/c3cc(OC)c(OC)c(OC)c3)cc2)cc1`?
GI50 (MDA-MB-231): 10.2 µM; TGI (MDA-MB-231): > 100 µM; CC50 (MDA-MB-231; [3]): > 100 µM; GI50 (MCF7): 2.18 µM; TGI (MCF7): 36.6 µM; CC50 (MCF7; [3]): > 100 µM; GI50 (PC-3): 5.65 µM; TGI (PC-3): > 100 µM; CC50 (PC-3; [3]): > 100 µM; GI50 ([1]; UO-31): 4.64 µM; TGI ([1]; UO-31): > 100 µM; CC50 ([1]; UO-31, read-out: LC50 (the source's name)): > 100 µM; GI50 (SN12C): 9.61 µM; TGI (SN12C): > 100 µM; CC50 (SN12C; [3]): > 100 µM; GI50 (CAKI-1): 14.6 µM; TGI (CAKI-1): > 100 µM; CC50 (CAKI-1; [3]): > 100 µM; GI50 (ACHN): 11.6 µM; TGI (ACHN): > 100 µM; CC50 (ACHN; [3]): > 100 µM; GI50 (A498): 18.6 µM; TGI (A498): > 100 µM; CC50 (A498; [3]): > 100 µM; GI50 (786-0): 10.4 µM; TGI (786-0): 71.1 µM; CC50 (786-0; [3]): > 100 µM; GI50 (SK-OV-3): 15.6 µM; TGI (SK-OV-3): 64.5 µM; CC50 (SK-OV-3; [3]): > 100 µM; GI50 (OVCAR-8): 3.76 µM; TGI (OVCAR-8): 61.1 µM; CC50 (OVCAR-8; [3]): > 100 µM; GI50 ([2]; OVCAR-5): 34.1 µM; TGI ([2]; OVCAR-5): > 100 µM; CC50 ([2]; OVCAR-5, read-out: LC50 (the source's name)): > 100 µM; GI50 (UACC-62): 7.13 µM; TGI (UACC-62): > 100 µM; CC50 (UACC-62; [3]): > 100 µM; GI50 (SK-MEL-5): 3.39 µM; TGI (SK-MEL-5): 19.2 µM; CC50 (SK-MEL-5; [3]): > 100 µM; GI50 (SK-MEL-28): 1.69 µM; TGI (SK-MEL-28): > 100 µM; CC50 (SK-MEL-28; [3]): > 100 µM; GI50 (MDA-MB-435): 4.28 µM; TGI (MDA-MB-435): 47.7 µM; CC50 (MDA-MB-435; [3]): > 100 µM; GI50 (U-251): 5.09 µM; TGI (U-251): 54.7 µM; CC50 (U-251; [3]): > 100 µM; GI50 (SNB-75): 5.5 µM; TGI (SNB-75): 47.7 µM; CC50 (SNB-75; [3]): > 100 µM; GI50 (SF-539): 12.2 µM; TGI (SF-539): 78.3 µM; CC50 (SF-539; [3]): > 100 µM; GI50 (SF-268): 6.08 µM; TGI (SF-268): 88.3 µM; CC50 (SF-268; [3]): > 100 µM; GI50 (SW-620): 4.5 µM; TGI (SW-620): > 100 µM; CC50 (SW-620; [3]): > 100 µM; GI50 (KM12): 3.75 µM; TGI (KM12): 83.9 µM; CC50 (KM12; [3]): > 100 µM; GI50 (HCT-15): 2.42 µM; TGI (HCT-15): > 100 µM; CC50 (HCT-15; [3]): > 100 µM; GI50 (HT-29): 4.17 µM; TGI (HT-29): > 100 µM; CC50 (HT-29; [3]): > 100 µM; GI50 (HCT-116): 2.62 µM; TGI (HCT-116): > 100 µM; CC50 (HCT-116; [3]): > 100 µM; GI50 (HCC 2998): 38.4 µM; TGI (HCC 2998): > 100 µM; CC50 (HCC 2998; [3]): > 100 µM; GI50 (COLO 205): 13.7 µM; TGI (COLO 205): > 100 µM; CC50 (COLO 205; [3]): > 100 µM; GI50 (NCI-H522): 3.3 µM; TGI (NCI-H522): 30.7 µM; CC50 (NCI-H522; [3]): > 100 µM; GI50 (NCI-H460): 8.65 µM; TGI (NCI-H460): > 100 µM; CC50 (NCI-H460; [3]): > 100 µM; GI50 (NCI-H322M): 1.98 µM; TGI (NCI-H322M): > 100 µM; CC50 (NCI-H322M; [3]): > 100 µM; GI50 (NCI-H23): 5.39 µM; TGI (NCI-H23): 65.9 µM; CC50 (NCI-H23; [3]): > 100 µM; GI50 (HOP-62): 1.28 µM; TGI (HOP-62): 63.8 µM; CC50 (HOP-62; [3]): > 100 µM; GI50 (SR): 1.98 µM; TGI (SR): > 100 µM; CC50 (SR; [3]): > 100 µM; GI50 (MOLT-4): 3.49 µM; TGI (MOLT-4): > 100 µM; CC50 (MOLT-4; [3]): > 100 µM; GI50 (CCRF-CEM): 4.15 µM; TGI (CCRF-CEM): > 100 µM; CC50 (CCRF-CEM; [3]): > 100 µM; GI50 (HL-60(TB)): 4.49 µM; TGI (HL-60(TB)): > 100 µM; CC50 (HL-60(TB); [3]): > 100 µM; GI50 (MDA-MB-468): 3.39 µM; TGI (MDA-MB-468): 48.7 µM; CC50 (MDA-MB-468; [3]): > 100 µM; GI50 (T47D): 6.19 µM; TGI (T47D): > 100 µM; CC50 (T47D; [3]): > 100 µM; GI50 (BT-549): 3.36 µM; TGI (BT-549): 16.8 µM; CC50 (BT-549; [3]): > 100 µM
